Active and inactive are the calls of the source. The rule behind the calls is not given here.
B1: 7-methylguanosine phosphate-specific 5'-nucleotidase (Homo sapiens), Q969T7 (protein)
chain: MAEEVSTLMKATVLMRQPGRVQEIVGALRKGGGDRLQVISDFDMTLSRFAYNGKRCPSSYNILDNSKIISEECRKELTALLHHYYPIEIDPHRTVKEKLPHMVEWWTKAHNLLCQQKIQKFQIAQVVRESNAMLREGYKTFFNTLYHNNIPLFIFSAGIGDILEEIIRQMKVFHPNIHIVSNYMDFNEDGFLQGFKGQLIHTYNKNSSACENSGYFQQLEGKTNVILLGDSIGDLTMADGVPGVQNILKIGFLNDKVEERRERYMDSYDIVLEKDETLDVVNGLLQHILCQGVQLEMQGP

Key:
m7GpppX diphosphatase = target: T1, m7GpppX diphosphatase (Homo sapiens, UniProt Q96C86); assay: Inhibition of human DCPS using m7GMPF as substrate after 30 mins by nucleoside 5'-fluorophosphate probe based HTS assay
T1 sequence (Q96C86 whole entry): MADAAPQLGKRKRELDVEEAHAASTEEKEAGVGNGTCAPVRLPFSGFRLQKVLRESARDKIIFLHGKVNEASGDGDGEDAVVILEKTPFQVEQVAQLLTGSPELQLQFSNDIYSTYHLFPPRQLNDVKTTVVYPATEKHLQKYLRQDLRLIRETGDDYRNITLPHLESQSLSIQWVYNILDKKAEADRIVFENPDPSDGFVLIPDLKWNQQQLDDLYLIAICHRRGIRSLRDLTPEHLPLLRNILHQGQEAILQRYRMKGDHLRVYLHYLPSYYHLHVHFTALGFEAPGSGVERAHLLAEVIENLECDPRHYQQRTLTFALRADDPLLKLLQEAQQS

[1] = Chemical stability of the compound in pH >8 solution at 100 uM after 24 hrs by RP-HPLC analysis; type: physicochemical
[2] = target: T2, 7-methylguanosine phosphate-specific 5'-nucleotidase (Homo sapiens) (UniProt Q969T7); assay: Activation of recombinant His6/SUMO-tagged human cN3B (1 to 300 residues) expressed in Escherichia coli BL21(DE3) RIL assessed as increase in dephosphorylation of m7GMP substrate at 100 uM after 45 mins by malachite green dye based assay
T2 sequence (whole entry): B1 chain

[3] = target: T2, 7-methylguanosine phosphate-specific 5'-nucleotidase (Homo sapiens); assay: Inhibition of recombinant His6/SUMO-tagged human cN3B (1 to 300 residues) expressed in Escherichia coli BL21(DE3) RIL assessed as reduction in dephosphorylation of m7GMP substrate at 200 uM after 45 mins by HPLC method relative to control
[4] = target: T2, 7-methylguanosine phosphate-specific 5'-nucleotidase (Homo sapiens); assay: Substrate activity at recombinant His6/SUMO-tagged human cN3B (1 to 300 residues) expressed in Escherichia coli BL21(DE3) RIL assessed as compound dephosphorylation at 100 uM up to 150 mins by HPLC method
[5] = Chemical stability of the compound in pH 6 to 8 PBS at 100 uM after 24 hrs by RP-HPLC analysis; type: physicochemical; conditions: buffer, pH 6, 24 h
[6] = target: Eukaryotic translation initiation factor 4E (Mus musculus, UniProt P63073); assay: Inhibition of fluorescein-labeled m7GDPC4H5 binding to mouse eIF4E (28 to 217 residues) by MST method; conditions: read-out: Kd(app)
[7] = target: T3, 7-methylguanosine phosphate-specific 5'-nucleotidase (Homo sapiens, UniProt Q969T7); assay: Inhibition of recombinant His6/SUMO-tagged human cN3B (1 to 300 residues) expressed in Escherichia coli BL21(DE3) RIL assessed as reduction in dephosphorylation of m7GMP substrate after 45 mins by malachite green dye based assay
T3 sequence (Q969T7 whole entry): B1 chain

[8] = target: T2, 7-methylguanosine phosphate-specific 5'-nucleotidase (Homo sapiens); assay: Inhibition of recombinant His6/SUMO-tagged human cN3B (1 to 300 residues) expressed in Escherichia coli BL21(DE3) RIL assessed as reduction in conversion of m7GMP to m7Guo at 200 uM after 45 mins in presence of human DCPS by HPLC method
Homo sapiens = species on record: Homo sapiens; assay: Selectivity ratio of IC50 for human DCPS to IC50 for recombinant His6/SUMO-tagged human cN3B (1 to 300 residues) expressed in Escherichia coli BL21(DE3) RIL
[9] = target: T4, m7GpppX diphosphatase (Homo sapiens) (UniProt Q96C86); assay: Inhibition of human DCPS using m7GMPF assessed as reduction in conversion of m7GpppG to GDP at 200 uM after 45 mins in presence of human cN3B by HPLC method
T4 sequence (whole entry): T1 sequence (Q96C86 whole entry)

[10] = target: T3, 7-methylguanosine phosphate-specific 5'-nucleotidase; assay: Inhibition of recombinant His6/SUMO-tagged human cN3B (1 to 300 residues) expressed in Escherichia coli BL21(DE3) RIL assessed as reduction in dephosphorylation of m7GMP substrate after 45 mins by HPLC method
[11] = target: T2, 7-methylguanosine phosphate-specific 5'-nucleotidase (Homo sapiens); assay: Inhibition of recombinant His6/SUMO-tagged human cN3B (1 to 300 residues) expressed in Escherichia coli BL21(DE3) RIL assessed as reduction in dephosphorylation of m7GMP substrate at 200 uM after 45 mins by malachite green dye based assay relative to control
[12] = target: Eukaryotic translation initiation factor 4E (Homo sapiens, UniProt P06730); assay: Inhibition of eIF4E (unknown origin)
[13] = target: T2, 7-methylguanosine phosphate-specific 5'-nucleotidase (Homo sapiens); assay: Activation of recombinant His6/SUMO-tagged human cN3B (1 to 300 residues) expressed in Escherichia coli BL21(DE3) RIL assessed as increase in dephosphorylation of m7GMP substrate at 200 uM after 45 mins by HPLC method
[14] = substrate: C[n+]1cn([C@@H]2O[C@H](Cn3cc(OCP(=O)([O-])O)nn3)[C@@H](O)[C@H]2O)c2nc(N)[nH]c(=O)c21; assay: Substrate activity at recombinant His6/SUMO-tagged human cN3B (1 to 300 residues) expressed in Escherichia coli BL21(DE3) RIL assessed as compound dephosphorylation by measuring ratio of Kcat to Km up to 30 mins by malachite green dye based assay
[15] = substrate: C[n+]1cn([C@@H]2O[C@H](Cn3cc(OCP(=O)([O-])O)nn3)[C@@H](O)[C@H]2O)c2nc(N)[nH]c(=O)c21; assay: Substrate activity at recombinant His6/SUMO-tagged human cN3B (1 to 300 residues) expressed in Escherichia coli BL21(DE3) RIL assessed as compound dephosphorylation up to 30 mins by malachite green dye based assay
[16] = substrate: C[n+]1cn([C@@H]2O[C@H](Cn3cc(OCP(=O)([O-])O)nn3)[C@@H](O)[C@H]2O)c2nc(N)[nH]c(=O)c21; assay: Substrate activity at recombinant His6/SUMO-tagged human cN3B (1 to 300 residues) expressed in Escherichia coli BL21(DE3) RIL assessed as compound dephosphorylation by Kcat up to 30 mins by malachite green dye based assay
[17] = substrate: C[n+]1cn([C@@H]2O[C@H](Cn3cc(OCP(=O)([O-])O)nn3)[C@@H](O)[C@H]2O)c2nc(N)[nH]c(=O)c21; assay: Substrate activity at recombinant His6/SUMO-tagged human cN3B (1 to 300 residues) expressed in Escherichia coli BL21(DE3) RIL assessed as compound dephosphorylation by Vmax up to 30 mins by malachite green dye based assay

Chain of Eukaryotic translation initiation factor 4E (Homo sapiens, UniProt P06730) (P06730 whole entry, the tested form may be a part): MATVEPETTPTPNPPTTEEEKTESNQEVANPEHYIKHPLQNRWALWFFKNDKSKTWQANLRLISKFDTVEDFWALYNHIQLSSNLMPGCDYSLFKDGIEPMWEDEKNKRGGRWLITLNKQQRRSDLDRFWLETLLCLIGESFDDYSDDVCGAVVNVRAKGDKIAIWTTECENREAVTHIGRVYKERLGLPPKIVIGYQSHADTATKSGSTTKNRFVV
Chain of Eukaryotic translation initiation factor 4E (Mus musculus, UniProt P63073) (P63073 whole entry, the tested form may be a part): as the sequence (P06730 whole entry, the tested form may be a part) above, with P12T, T16P, T17A, E174D counted along it

Molecule | IC50 (m7GpppX diphosphatase) [µM] | Stability [1] | Activity [2] | inhibition [3] | Activity [4] | Stability [5] | inhibition [11] | further results
C[n+]1cn([C@@H]2O[C@H](COP(=O)([O-])OP(=O)(O)O)[C@@H](O)[C@H]2O)c2nc(N)[nH]c(=O)c21 | 1.8 |  |  |  |  |  |  | 
C[n+]1cn([C@@H]2O[C@H](Cn3cc(OCP(=O)([O-])O)nn3)[C@@H](O)[C@H]2O)c2nc(N)[nH]c(=O)c21 |  | Unstable | Active | inactive | Active | Stable |  | 
C[n+]1cn([C@@H]2O[C@H](Cn3cc(P(=O)([O-])O)nn3)[C@@H](O)[C@H]2O)c2nc(N)[nH]c(=O)c21 | 244 | Unstable |  | 67% | inactive | Stable | 51% | Kd [6]: 5.9 µM; IC50 [7]: 128 µM; inhibition [8]: Active; Ratio IC50 (Homo sapiens): 3; inhibition [9]: inactive; IC50 [10]: 87.8 µM; Ki [12]: 382 µM
C[n+]1cn([C@@H]2O[C@H](Cn3cc(CP(=O)([O-])O)nn3)[C@@H](O)[C@H]2O)c2nc(N)[nH]c(=O)c21 |  | Unstable | inactive | inactive | inactive | Stable | inactive | Activity [13]: inactive
C[n+]1cn([C@@H]2O[C@H](COP(=O)([O-])O)[C@@H](O)[C@H]2O)c2nc(N)[nH]c(=O)c21 | 42.2 |  |  |  | Active |  |  | 
C[n+]1cn([C@@H]2O[C@H](Cn3cc(CCP(=O)([O-])O)nn3)[C@@H](O)[C@H]2O)c2nc(N)[nH]c(=O)c21 |  | Unstable | inactive | inactive | inactive | Stable | inactive | Activity [13]: inactive
B1 |  |  |  |  |  |  |  | kcat/Km [14]: 0.011 s⁻¹ µM⁻¹; Km [15]: 82 µM; kcat [16]: 1.16 s⁻¹; Vmax [17]: 1.6 µmol/min/mg
